Source: ChEMBL document CHEMBL1201862, “PubChem BioAssay data set” (2004)
Activity calls are given as the source filed them.

What was measured:
[1] = target: Fructose-bisphosphate aldolase (Mycobacterium tuberculosis, UniProt P9WQA3); experiment: Fluorescence-based biochemical high throughput dose response assay for inhibitors of the fructose-bisphosphate aldolase (FBA) of M. tuberculosis.; type: functional
[2] = target: ADP-ribosylation factor GTPase-activating protein 1 (Rattus norvegicus, UniProt Q62848); experiment: Fluorescence polarization-based biochemical high throughput dose response screening assay to identify inhibitors of ADP-ribosylation factor GTPase activating protein 1 (ARFGAP1).; type: functional
Chain of ADP-ribosylation factor GTPase-activating protein 1 (Q62848 whole entry, the tested form may be a part): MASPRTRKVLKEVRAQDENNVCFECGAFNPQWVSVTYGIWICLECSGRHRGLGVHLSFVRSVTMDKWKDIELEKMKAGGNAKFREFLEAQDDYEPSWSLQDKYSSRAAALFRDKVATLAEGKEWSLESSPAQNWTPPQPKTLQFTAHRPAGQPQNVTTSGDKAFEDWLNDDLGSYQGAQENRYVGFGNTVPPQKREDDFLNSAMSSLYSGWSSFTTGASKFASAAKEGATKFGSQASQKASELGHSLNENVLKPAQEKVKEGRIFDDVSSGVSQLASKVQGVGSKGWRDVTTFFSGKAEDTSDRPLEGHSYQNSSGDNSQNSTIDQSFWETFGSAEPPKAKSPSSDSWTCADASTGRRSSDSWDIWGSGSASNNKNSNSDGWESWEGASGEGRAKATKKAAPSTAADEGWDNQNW

[3] = target: Arf-GAP with SH3 domain, ANK repeat and PH domain-containing protein 1 (Homo sapiens, UniProt Q9ULH1); type: functional;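 also: biochemical fluorescence polarization dose–response screen measuring inhibition of ASAP1; ASAP1 GAP domain stimulating GTP hydrolysis by truncated human ARF1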
Chain of Arf-GAP with SH3 domain, ANK repeat and PH domain-containing protein 1 (Q9ULH1 whole entry, the tested form may be a part): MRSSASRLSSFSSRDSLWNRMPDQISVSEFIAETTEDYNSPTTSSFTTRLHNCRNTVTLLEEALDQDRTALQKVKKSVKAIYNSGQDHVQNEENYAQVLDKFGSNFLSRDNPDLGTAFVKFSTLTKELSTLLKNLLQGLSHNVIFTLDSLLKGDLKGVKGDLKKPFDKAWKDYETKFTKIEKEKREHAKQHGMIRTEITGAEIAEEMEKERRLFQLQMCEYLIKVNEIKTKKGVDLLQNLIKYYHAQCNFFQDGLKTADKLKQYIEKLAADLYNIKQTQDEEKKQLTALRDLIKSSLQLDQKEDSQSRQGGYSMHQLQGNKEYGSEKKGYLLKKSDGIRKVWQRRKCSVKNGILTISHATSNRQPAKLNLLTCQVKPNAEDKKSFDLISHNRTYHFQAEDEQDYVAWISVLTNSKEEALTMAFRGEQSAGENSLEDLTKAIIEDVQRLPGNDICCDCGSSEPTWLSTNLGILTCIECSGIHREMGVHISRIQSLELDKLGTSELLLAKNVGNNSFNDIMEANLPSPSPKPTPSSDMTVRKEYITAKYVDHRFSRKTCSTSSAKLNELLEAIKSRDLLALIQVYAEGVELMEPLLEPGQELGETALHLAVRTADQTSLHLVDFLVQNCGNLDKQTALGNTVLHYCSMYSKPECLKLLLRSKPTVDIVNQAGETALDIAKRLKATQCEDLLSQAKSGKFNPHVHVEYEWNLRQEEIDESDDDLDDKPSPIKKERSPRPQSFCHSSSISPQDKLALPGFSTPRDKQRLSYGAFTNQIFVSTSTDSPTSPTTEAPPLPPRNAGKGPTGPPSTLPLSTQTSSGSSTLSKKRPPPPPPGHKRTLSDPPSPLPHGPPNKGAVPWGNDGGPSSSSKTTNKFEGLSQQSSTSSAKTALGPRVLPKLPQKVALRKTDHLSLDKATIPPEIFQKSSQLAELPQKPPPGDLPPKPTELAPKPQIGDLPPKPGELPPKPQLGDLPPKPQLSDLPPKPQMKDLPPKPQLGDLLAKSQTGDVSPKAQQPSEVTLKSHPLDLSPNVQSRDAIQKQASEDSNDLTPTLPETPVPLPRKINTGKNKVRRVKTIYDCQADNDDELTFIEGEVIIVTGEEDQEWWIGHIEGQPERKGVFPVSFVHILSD

[4] = target: T1, Short transient receptor potential channel 4 (Mus musculus, UniProt Q9QUQ5); experiment: mouse TRPC4 channel inhibitors, dose response, cell-based, HEK293 TRPC4/mu-opioid, Fluo-4 calcium (AID 434942); type: functional;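 also: potency of inhibitors blocking the TRPC4 calcium response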
T1 sequence (Q9QUQ5 whole entry): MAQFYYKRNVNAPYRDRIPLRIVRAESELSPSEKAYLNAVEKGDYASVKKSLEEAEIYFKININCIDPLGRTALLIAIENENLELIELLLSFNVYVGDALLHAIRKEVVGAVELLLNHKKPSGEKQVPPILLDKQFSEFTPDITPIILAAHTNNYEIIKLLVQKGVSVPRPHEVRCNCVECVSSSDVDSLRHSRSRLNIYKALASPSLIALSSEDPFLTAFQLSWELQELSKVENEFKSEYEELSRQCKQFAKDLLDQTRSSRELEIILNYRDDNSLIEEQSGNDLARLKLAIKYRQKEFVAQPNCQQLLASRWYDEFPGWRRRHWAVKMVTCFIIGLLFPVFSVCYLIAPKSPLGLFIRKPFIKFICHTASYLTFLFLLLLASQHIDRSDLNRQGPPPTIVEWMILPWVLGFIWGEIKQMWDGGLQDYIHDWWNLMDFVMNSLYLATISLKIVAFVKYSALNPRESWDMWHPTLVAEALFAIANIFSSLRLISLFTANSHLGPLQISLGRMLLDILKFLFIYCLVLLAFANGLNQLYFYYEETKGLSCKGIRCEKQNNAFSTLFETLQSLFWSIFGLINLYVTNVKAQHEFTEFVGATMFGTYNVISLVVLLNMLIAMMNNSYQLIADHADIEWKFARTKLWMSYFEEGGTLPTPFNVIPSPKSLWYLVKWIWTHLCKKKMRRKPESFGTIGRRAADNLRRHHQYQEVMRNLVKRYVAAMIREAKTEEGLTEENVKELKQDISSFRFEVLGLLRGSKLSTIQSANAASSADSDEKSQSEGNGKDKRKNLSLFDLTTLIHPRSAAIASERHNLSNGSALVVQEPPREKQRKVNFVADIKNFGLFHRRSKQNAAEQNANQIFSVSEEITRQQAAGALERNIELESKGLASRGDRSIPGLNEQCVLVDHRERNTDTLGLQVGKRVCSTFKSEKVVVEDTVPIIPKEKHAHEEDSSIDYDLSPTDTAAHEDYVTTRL

[5] = target: T2, DNA repair and recombination protein RAD54-like (Homo sapiens, UniProt Q92698); experiment: inhibitors of human RAD54 branch migration, confirmation, biochemical, fluorescence, cherry-picked samples, dose series (AID 651657); type: functional
T2 sequence (Q92698 whole entry): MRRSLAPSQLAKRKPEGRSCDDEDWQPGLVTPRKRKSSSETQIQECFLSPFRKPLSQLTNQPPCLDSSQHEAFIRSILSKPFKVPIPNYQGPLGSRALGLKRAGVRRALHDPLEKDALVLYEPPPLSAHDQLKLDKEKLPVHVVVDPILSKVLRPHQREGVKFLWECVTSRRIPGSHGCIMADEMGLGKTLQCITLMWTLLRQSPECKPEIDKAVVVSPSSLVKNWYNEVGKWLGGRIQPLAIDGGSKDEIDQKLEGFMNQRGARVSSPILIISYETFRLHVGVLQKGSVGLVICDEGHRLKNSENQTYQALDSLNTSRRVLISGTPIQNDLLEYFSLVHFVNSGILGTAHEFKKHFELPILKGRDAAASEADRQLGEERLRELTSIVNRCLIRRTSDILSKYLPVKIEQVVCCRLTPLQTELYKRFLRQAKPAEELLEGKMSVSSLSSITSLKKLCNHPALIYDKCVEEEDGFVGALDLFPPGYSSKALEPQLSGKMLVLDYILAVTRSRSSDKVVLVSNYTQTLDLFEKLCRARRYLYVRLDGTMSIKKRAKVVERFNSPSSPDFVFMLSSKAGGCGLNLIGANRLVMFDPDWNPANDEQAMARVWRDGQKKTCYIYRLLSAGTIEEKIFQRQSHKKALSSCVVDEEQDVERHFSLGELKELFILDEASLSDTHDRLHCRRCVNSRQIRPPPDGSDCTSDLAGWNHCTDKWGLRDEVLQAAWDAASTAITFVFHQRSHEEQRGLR

[6] = target: DNA repair protein RAD52 homolog (Homo sapiens, UniProt P43351); type: functional, biochemical
Chain of DNA repair protein RAD52 homolog (P43351 whole entry): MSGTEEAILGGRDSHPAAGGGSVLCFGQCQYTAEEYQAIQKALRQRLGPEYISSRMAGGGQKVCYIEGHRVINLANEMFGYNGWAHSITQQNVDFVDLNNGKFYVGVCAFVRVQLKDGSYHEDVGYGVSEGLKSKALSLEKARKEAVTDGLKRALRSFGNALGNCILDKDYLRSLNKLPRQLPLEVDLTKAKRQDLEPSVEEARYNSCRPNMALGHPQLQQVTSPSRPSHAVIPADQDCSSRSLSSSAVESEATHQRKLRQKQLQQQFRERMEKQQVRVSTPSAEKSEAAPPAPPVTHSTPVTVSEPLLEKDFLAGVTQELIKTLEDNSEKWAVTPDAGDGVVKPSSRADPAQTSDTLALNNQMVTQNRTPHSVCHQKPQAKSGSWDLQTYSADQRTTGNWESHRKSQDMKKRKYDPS

[7] = inhibitors of intracellular T. cruzi replication, confirmation, NIH3T3 host cells, beta-gal luminescence (AID 2044); type: functional, cell-based;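 also: intracellular parasites grown in NIH/3T3 mouse fibroblasts as host cells; luminescent beta-galactosidase reporter signal from transgenic T. cruzi replicating inside host cells; inhibitors lower the luminescence signal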
[8] = cytotoxicity toward NIH3T3 fibroblasts, dose response, counter-screen, cell-based, ATP luminescence, mouse fibroblasts (AID 2010); type: functional;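 also: cells exposed to compound for about 90 hours before reading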
[9] = target: Luciferin 4-monooxygenase (Photinus pyralis, UniProt P08659); experiment: firefly luciferase enzyme inhibitors, dose response, biochemical, luminescence (AID 1891)
Chain of Luciferin 4-monooxygenase (P08659 whole entry): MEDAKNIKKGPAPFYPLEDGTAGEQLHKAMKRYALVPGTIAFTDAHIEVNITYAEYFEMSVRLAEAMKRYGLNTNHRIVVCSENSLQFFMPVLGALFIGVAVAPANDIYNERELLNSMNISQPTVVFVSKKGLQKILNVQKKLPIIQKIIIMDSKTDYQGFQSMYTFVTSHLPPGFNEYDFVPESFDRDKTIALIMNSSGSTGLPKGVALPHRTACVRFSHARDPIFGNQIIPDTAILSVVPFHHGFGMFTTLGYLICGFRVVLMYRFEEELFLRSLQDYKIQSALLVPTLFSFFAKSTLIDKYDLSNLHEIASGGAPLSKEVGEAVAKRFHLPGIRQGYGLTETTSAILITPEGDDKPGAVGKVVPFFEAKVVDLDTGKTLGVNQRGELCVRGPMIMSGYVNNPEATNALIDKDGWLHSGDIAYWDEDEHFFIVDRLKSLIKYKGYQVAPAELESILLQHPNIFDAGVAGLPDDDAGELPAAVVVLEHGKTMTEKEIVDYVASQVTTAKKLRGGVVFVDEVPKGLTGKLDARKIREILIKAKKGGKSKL

[10] = HeLa cell cytotoxicity, dose response, cytotoxicity control for MgcRacGAP inhibitor project (AID 624300); type: functional
[11] = A549 cell cytotoxicity, dose response, cytotoxicity control, plate reader, cherry-pick, antagonist series (AID 743412); type: functional, cell-based
Aminopeptidase N = target: T3, Aminopeptidase N (Plasmodium falciparum FcB1/Columbia, UniProt O96935); experiment: P. falciparum M1AAP inhibitors, biochemical, fluorogenic H-Leu-NHMec substrate, 1536-well (AID 1445); set-up: species or system Plasmodium falciparum 3D7, 3D7
T3 sequence (O96935 whole entry): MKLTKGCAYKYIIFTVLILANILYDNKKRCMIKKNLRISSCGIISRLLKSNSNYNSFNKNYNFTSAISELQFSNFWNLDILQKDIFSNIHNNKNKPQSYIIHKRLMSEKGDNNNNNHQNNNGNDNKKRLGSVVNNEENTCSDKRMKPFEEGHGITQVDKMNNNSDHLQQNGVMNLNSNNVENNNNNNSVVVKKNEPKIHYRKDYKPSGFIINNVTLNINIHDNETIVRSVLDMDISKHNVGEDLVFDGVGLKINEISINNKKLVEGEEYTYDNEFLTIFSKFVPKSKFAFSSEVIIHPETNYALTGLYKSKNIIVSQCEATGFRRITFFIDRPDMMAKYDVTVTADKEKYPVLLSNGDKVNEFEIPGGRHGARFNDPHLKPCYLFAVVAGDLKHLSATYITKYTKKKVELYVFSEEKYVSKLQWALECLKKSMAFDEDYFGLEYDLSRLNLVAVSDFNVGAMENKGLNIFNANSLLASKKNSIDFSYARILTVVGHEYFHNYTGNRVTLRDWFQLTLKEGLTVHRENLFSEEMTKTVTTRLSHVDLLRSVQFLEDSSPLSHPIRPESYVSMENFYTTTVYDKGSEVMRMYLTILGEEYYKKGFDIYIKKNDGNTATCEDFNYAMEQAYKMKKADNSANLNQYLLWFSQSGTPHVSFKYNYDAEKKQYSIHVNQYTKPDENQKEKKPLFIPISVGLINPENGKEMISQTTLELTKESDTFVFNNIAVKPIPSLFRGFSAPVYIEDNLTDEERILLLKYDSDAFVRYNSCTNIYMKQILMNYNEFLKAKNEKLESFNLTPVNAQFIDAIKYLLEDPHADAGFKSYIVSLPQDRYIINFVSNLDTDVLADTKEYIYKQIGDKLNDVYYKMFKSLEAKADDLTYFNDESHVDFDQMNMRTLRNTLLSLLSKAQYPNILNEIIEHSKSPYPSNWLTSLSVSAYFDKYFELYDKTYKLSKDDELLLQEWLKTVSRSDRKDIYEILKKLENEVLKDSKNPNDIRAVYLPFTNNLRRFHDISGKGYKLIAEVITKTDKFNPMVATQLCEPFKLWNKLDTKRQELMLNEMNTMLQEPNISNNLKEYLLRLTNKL

[12] = MC4R antagonists, dose response, counter-screen for LGR2 antagonist project, cell-based, plate reader, cherry pick (AID 743444); type: functional;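 also: transfected HEK 293 cells stimulated with alpha-MSH peptide; potency of inhibitors of the alpha-MSH evoked signal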
[13] = target: T4, Rac GTPase-activating protein 1 (Homo sapiens, UniProt Q9H0H5); experiment: MgcRacGAP GTPase-activating activity inhibitors, confirmation, biochemical, ADP Hunter fluorescence, primary and confirmatory (AID 624330); type: functional
T4 sequence (Q9H0H5 whole entry): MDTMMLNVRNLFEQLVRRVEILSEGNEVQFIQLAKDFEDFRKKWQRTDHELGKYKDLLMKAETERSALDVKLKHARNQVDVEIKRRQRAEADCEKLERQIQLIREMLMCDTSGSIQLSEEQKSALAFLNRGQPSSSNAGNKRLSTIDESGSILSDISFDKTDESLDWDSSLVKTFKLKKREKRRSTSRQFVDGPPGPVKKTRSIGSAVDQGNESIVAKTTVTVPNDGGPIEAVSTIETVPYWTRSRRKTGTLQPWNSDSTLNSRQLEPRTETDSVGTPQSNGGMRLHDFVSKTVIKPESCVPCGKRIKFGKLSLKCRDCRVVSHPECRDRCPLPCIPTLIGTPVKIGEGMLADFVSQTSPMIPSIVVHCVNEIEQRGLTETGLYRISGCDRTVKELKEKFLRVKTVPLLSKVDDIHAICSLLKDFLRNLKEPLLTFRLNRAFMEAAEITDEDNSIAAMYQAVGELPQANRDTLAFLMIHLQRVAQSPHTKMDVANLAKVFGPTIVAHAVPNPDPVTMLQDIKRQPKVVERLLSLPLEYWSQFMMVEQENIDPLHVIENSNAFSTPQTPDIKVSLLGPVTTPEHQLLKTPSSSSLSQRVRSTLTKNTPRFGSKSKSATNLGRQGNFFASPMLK

[14] = LGR2 antagonists, dose response, cell-based, HEK293, CRE-luciferase reporter, cherry pick, set 2 (AID 743343); type: functional;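 also: transfected cells were stimulated with diluted bursicon conditioned medium after compound addition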
[15] = Luminescence Cell-Based Dose Confirmation HTS to Identify Inhibitors of Platelet Dense Granule Release. [Related pubchem assays: 1663 (Primary HTS), 1678 (Summary of Project)]; type: functional
Albumin = Albumin (Bos taurus, UniProt P02769); experiment: Counterscreen for inhibitors of T-cell receptor (TCR)-CD3 interaction: Fluorescence-based biochemical high throughput dose response assay to identify inhibitors of T-cell receptor (TCR)-CD3 interaction using a TAMRA-labeled BSA probe.; type: functional
Chain of Albumin (P02769 whole entry): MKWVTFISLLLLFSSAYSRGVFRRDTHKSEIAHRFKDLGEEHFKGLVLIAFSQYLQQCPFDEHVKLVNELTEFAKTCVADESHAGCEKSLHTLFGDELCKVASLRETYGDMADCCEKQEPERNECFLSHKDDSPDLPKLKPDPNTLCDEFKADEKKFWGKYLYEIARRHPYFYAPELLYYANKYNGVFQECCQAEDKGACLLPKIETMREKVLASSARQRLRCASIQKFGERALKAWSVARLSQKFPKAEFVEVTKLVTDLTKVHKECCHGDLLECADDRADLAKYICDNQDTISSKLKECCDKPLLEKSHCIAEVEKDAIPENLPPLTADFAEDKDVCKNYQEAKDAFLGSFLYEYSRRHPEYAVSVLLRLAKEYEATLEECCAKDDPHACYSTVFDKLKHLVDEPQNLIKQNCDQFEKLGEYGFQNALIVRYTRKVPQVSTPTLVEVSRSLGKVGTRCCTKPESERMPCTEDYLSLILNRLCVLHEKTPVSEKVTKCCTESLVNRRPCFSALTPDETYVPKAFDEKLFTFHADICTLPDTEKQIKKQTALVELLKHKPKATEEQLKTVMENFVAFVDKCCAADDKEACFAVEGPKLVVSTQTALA

[16] = intracellular Trypanosoma cruzi inhibitors in host cells – cell-based, plate reader, cherry-pick samples, set 3, dose response (AID 651818); type: functional;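 also: compounds incubated with infected cells for about four days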
[17] = T. b. rhodesiense proliferation inhibition, dose response, STIB900 strain, plate reader, cherry pick (AID 651893); type: functional, cell-based; conditions: Trypanosoma brucei
[18] = Inhibition of T. cruzi Tulahuen strain amastigotes in L-6 muscle cells Measured in Cell-Based and Microorganism Combination System Using Plate Reader - 2138-03_Inhibitor_Dose_CherryPick_Activity.; type: functional; conditions: Rattus norvegicus, L6
[19] = L. donovani amastigote growth inhibition, dose response, axenic amastigotes, plate reader, cherry pick (AID 651891); type: functional, cell-based; conditions: Leishmania donovani
[20] = Inhibition of Plasmodium falciparum NF54 Measured in Cell-Based System Using Plate Reader - 2138-11_Inhibitor_Dose_CherryPick_Activity.; type: functional
[21] = cytotoxicity in L-6 rat myocytes, dose response, cytotoxicity control, cell-based, plate reader, cherry-pick (AID 651896); type: functional

Chain of Fructose-bisphosphate aldolase (P9WQA3 whole entry): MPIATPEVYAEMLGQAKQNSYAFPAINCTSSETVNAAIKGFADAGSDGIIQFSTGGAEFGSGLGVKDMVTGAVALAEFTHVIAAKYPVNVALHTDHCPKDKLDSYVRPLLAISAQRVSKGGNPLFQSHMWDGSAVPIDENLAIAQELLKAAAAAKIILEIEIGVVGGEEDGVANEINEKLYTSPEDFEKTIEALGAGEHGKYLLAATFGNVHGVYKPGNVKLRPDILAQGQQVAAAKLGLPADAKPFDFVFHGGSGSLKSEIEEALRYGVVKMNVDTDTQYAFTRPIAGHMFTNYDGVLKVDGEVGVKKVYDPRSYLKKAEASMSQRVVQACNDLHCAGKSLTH

Cc1coc2c1c(C)cc1oc(=O)c(CC(=O)NCCCN3CCCC3=O)c(C)c12
IC50 [1]: 1.43 µM (active)

Cc1ccc2nc(SCC(=O)N3CCC(C)CC3)nc(=O)n2c1
IC50 [2]: 26.2 µM (inactive) | IC50 [3]: 22.9 µM (inactive)

COc1cccc(NC(=O)Cn2nnc(C(=O)Nc3cc(Cl)ccc3OC)c2N)c1
IC50 [2]: 5.04 µM (active) | IC50 [3]: 8.8 µM (active)

COc1ccc(Nc2nc(NCC3CCCO3)c3ccccc3n2)c(OC)c1 (centres undefined)
EC50 [4]: 0.376 µM (active) | AC50 [5]: 57.9 µM (active) | AC50 [6]: 13.4 µM (active) | EC50 [7]: 0.465 µM (active) | EC50 [8]: > 30 µM (not active)

Nc1ccc(-c2nc3ccc(N)cc3s2)cc1
EC50 [9]: 8.6 µM (active) | CC50 [10]: 100 µM (active) | AC50 [11]: > 52 µM (inactive) | IC50 (Aminopeptidase N): 21.3 µM (active) | AC50 [12]: 7.01 µM (active) | IC50 [13]: 70.2 µM (active) | AC50 [14]: 7.8 µM (active) | EC50 [15]: 17.5 µM (active)

Cc1ccc(N2C(=O)/C(=C\NNC(=O)C3COc4ccccc4O3)c3ccccc3C2=O)cc1 (centres undefined)
IC50 (Albumin): > 94.1 µM (inactive)

COc1ccc(S(=O)(=O)N(CCCN2CCCC2=O)Cc2cc3c(C)cc(C)cc3nc2O)cc1
IC50 [1]: > 3.33 µM (active)

Cc1cc(C)c(-c2cc(NC(=O)COC(=O)c3ccc(NC(=O)CC#N)cc3)n(-c3ccccc3)n2)cc1C
IC50 (Albumin): > 94.1 µM (inactive)

C[C@H](CO)N1C[C@H](C)[C@@H](CN(C)Cc2ccc(C(F)(F)F)cc2)Oc2c(NC(=O)c3ccncc3)cccc2C1=O
AC50 [16]: 0.105 µM (active) | IC50 [17]: 7.22 µM (inactive) | IC50 [18]: 3.79 µM (inactive) | IC50 [19]: 41.4 µM (inactive) | IC50 [20]: 3.79 µM (inactive) | IC50 [21]: 36.1 µM (inactive)

CCN1CCN(Cc2ccc(C(=O)Nc3ccc(C)c(NCc4cnc(NC(=O)OC)cn4)c3)cc2C(F)(F)F)CC1
AC50 [6]: 15.1 µM (active)

C[C@H]1CN([C@@H](C)CO)C(=O)c2cccc(NC(=O)c3ccncc3)c2O[C@H]1CN(C)Cc1ccc(-c2ccccc2)cc1
AC50 [16]: 0.08 µM (active) | IC50 [17]: 11.2 µM (inactive) | IC50 [18]: 3.21 µM (inactive) | IC50 [19]: > 100 µM (inactive) | IC50 [20]: 3.21 µM (inactive) | IC50 [21]: 47.5 µM (inactive)
